Test results published in EP4168403B1 (priority 2020, dated 2021).
Several values for one entry are separate records, joined by “and”; a condition that tells them apart may be missing. Equal values may be shown once. Read-outs that look alike come from different tables or passages of the source.

What was measured:
[1] = Oxygen Radical Absorbance Capacity (ORAC-FL) assay; settings: Trolox equivalents (µmol of Trolox equivalent/µmol of compound)
Procedure: The radical scavenging capacity of the TFAHs was determined by the ORAC-FL method using fluorescein as a fluorescent probe^33,34. (±)-6-Hydroxy-2,5,7,8-tetramethylchromane-2-carboxylic acid (Trolox), fluorescein (FL) and 2,2'-azobis(amidinopropane) dihydrochloride (AAPH) were purchased from Sigma-Aldrich. A Varioskan Flash plate reader with built-in injectors (Thermo Scientific) was used. The reaction was carried out at 37 °C in 75 mM phosphate buffer (pH= 7.4), and the final volume reaction mixture was 200 µL. The tested compounds and Trolox standard were dissolved in DMSO to 10 mM and further diluted in 75 mM phosphate buffer (pH= 7.4). The final concentrations were 0.1-1 µM for the tested compounds and 1-8 µM for Trolox standard. The blank was composed of 120 µL of FL, 60 µL of AAPH and 20 µL of phosphate buffer (pH=7.4) and was added in each assay.
The net AUC corresponding to a sample was calculated as follows: Net AUC = AUCantioxidant −AUCblank . [formula]
Regression equations were calculated by plotting the net AUC against the antioxidant concentration. The ORAC value was obtained by dividing the slope of the latter curve between the slope of the Trolox curve obtained in the same assay. Final ORAC values were expressed as µmol of Trolox equivalent/µmol of TFAH.

[2] = test system: voltage-gated Ca^2+ channels (VGCC); assay: Calcium channel antagonist assay (K+-evoked cytosolic Ca2+, Fluo-4); format: cell-based
Procedure: The cytosolic Ca^2+ has been measured in SH-SY5Y cells. SH-SY5Y cells were maintained similarly to what was previously described^30. Free cytosolic Ca^2+ was measured using the fluorescent Ca^2+ indicator Fluo-4/AM (Fluo-4 acetomethoxyester). SH-SY5Y cells were seeded onto 96-well black plates at a density of 10^5 cells per well, achieving confluence after 48 h. Cells were washed with Krebs-Hepes solution (KH, in mM: 144 NaCl, 5.9 KCl, 1.2 MgCl2, 2 CaCl2, 11 D-glucose, 10 HEPES, pH 7.4). Cells were loaded with 10 µM Fluo-4/AM and 0.2% pluronic acid in KH and incubated for 45 min at 37 °C in the dark. Then, cells were washed twice with KH to remove the excess of probe. Tested compounds were incubated 10 min before K+ 70 mM was applied to evoke the increment of cytosolic Ca^2+. To normalize Fluo-4 signals, Triton X-100 (5%) and 1 M MnCl2 were applied to register both maximal and minimal fluorescence, respectively. The experiments were analyzed at excitation and emission wavelengths of 485 and 520 nm, respectively, and fluorescence was measured in a fluorescence microplate reader (FLUOstar Optima, BMG, Germany). Data were calculated as a percentage of Fmax - Fmin.
The blocking effect of the depolarization-induced Ca^2+ uptake was investigated in SH-SY5Y neuroblastoma cells stimulated with an extracellular concentration of K+ 70 mM, which induces the cell Ca^2+ levels elevation by opening voltage-gated Ca^2+ channels (VGCC), monitored with the Ca^2+-sensitive fluorescent dye Fluo-4. Nifedipine was used as positive standard.

[3] = target: T1, human recombinant butyrylcholinesterase (hBuChE; EC 3.1.1.8) (Homo sapiens, UniProt P06276); assay: Cholinesterase inhibition in vitro assay (modified Ellman's method), BuChE; format: biochemical; settings: pH 7.4, 37 °C, mean ± SEM, read-out: BChE (IC50 µM)
T1 construct: purchased Sigma-Aldrich (Prague, Czech Republic)
Procedure: The AChE and BuChE inhibitory activity of the tested compounds was determined using a modified Ellman's method^31, 32.Human red-blood cell acetylcholinesterase (hAChE; EC 3.1.1.7), and human recombinant butyrylcholinesterase (hBuChE; EC 3.1.1.8), 5,5'-dithiobis(2-nitrobenzoic acid) (Ellman's reagent, DTNB), phosphate buffer (PB, pH 7.4), acetylthiocholine (ATC), and butyrylthiocholine (BTC), were purchased from Sigma-Aldrich (Prague, Czech Republic). Nunc polystyrene 96-well microplates with flat-bottom shape (ThermoFisher Scientific, USA) were used for the measurement and all the assay were carried out in 0.1 M KH2PO4/K2HPO4 buffer, pH 7.4. Enzyme solution was prepared at activity 2.0 units/mL in 2 mL aliquots. The assay mixture (100 µL) consisted of 40 µL of 0.1 M phosphate buffer (pH 7.4), 20 µL of 0.01 M DTNB, 10 µL of enzyme, and 20 µL of 0.01 M substrate (ATC iodide solution). Tested compounds were dissolved first in methanol (BIGI 23 in DMSO) and then further diluted by assay buffer to the final concentration. […]. […] Enzyme with the inhibitor was preincubated for 5 min in the assay mixture and then the reaction was started by addition of 20 µL of substrate (ATC for AChE, BTC for BuChE). The enzyme activity was determined by measuring the increase in absorbance at 412 nm at 37 °C at 2 min intervals using a Multi-mode microplate reader Synergy 2 (Vermont, USA). Each concentration was assayed in triplicate. The obtained data were used to compute the percentage inhibition (I; Equation 1): I = 1−(ΔAi)/(ΔA0) [%] [formula] ΔAi indicates the absorbance change provided by cholinesterase exposed to AChE inhibitors and ΔA0 indicates absorbance change caused by intact cholinesterase (phosphate buffer was used instead of AChE inhibitor solution). […] Calculations were performed using software Microsoft Excel (Redmont, WA, USA) and GraphPad Prism version 5.02 for Windows, GraphPad Software, San Diego, CA, USA.

[4] = target: T2, Human red-blood cell acetylcholinesterase (hAChE; EC 3.1.1.7) (Homo sapiens, UniProt P22303); assay: biochemical; settings: pH 7.4, 37 °C, mean ± SEM, read-out: AChE (IC50 µM)
T2 construct: Human red-blood cell acetylcholinesterase; purchased Sigma-Aldrich (Prague, Czech Republic); host or cells: human red blood cells
Procedure: The AChE and BuChE inhibitory activity of the tested compounds was determined using a modified Ellman's method^31, 32.Human red-blood cell acetylcholinesterase (hAChE; EC 3.1.1.7), and human recombinant butyrylcholinesterase (hBuChE; EC 3.1.1.8), 5,5'-dithiobis(2-nitrobenzoic acid) (Ellman's reagent, DTNB), phosphate buffer (PB, pH 7.4), acetylthiocholine (ATC), and butyrylthiocholine (BTC), were purchased from Sigma-Aldrich (Prague, Czech Republic). Nunc polystyrene 96-well microplates with flat-bottom shape (ThermoFisher Scientific, USA) were used for the measurement and all the assay were carried out in 0.1 M KH2PO4/K2HPO4 buffer, pH 7.4. Enzyme solution was prepared at activity 2.0 units/mL in 2 mL aliquots. The assay mixture (100 µL) consisted of 40 µL of 0.1 M phosphate buffer (pH 7.4), 20 µL of 0.01 M DTNB, 10 µL of enzyme, and 20 µL of 0.01 M substrate (ATC iodide solution). Tested compounds were dissolved first in methanol (BIGI 23 in DMSO) and then further diluted by assay buffer to the final concentration. […] Enzyme with the inhibitor was preincubated for 5 min in the assay mixture and then the reaction was started by addition of 20 µL of substrate (ATC for AChE, BTC for BuChE). […] Each concentration was assayed in triplicate. The obtained data were used to compute the percentage inhibition (I; Equation 1): I = 1−(ΔAi)/(ΔA0) [%] [formula] ΔAi indicates the absorbance change provided by cholinesterase exposed to AChE inhibitors and ΔA0 indicates absorbance change caused by intact cholinesterase (phosphate buffer was used instead of AChE inhibitor solution).

[5] = SH-SY5Y cells, K+ 70 mM, mean ± SEM, read-out: IC50 (µM) Calcium channels blockade

T2 sequence (P22303 32-617 isoform P22303-2 limits assumed): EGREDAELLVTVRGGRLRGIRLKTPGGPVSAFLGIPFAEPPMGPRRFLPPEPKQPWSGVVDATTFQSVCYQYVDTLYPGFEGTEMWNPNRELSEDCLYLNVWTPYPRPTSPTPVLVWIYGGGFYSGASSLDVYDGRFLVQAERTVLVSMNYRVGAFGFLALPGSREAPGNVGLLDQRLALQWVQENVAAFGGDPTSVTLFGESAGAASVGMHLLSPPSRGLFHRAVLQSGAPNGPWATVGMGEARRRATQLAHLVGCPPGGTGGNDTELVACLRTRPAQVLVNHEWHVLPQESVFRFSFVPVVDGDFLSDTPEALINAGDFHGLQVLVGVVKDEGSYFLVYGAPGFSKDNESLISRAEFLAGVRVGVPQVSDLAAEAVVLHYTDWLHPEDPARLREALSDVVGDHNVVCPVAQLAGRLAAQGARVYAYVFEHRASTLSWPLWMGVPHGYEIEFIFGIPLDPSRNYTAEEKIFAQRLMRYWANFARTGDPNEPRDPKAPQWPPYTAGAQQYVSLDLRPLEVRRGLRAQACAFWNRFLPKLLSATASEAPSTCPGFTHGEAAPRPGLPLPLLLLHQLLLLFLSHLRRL
T1 sequence (P06276 29-602): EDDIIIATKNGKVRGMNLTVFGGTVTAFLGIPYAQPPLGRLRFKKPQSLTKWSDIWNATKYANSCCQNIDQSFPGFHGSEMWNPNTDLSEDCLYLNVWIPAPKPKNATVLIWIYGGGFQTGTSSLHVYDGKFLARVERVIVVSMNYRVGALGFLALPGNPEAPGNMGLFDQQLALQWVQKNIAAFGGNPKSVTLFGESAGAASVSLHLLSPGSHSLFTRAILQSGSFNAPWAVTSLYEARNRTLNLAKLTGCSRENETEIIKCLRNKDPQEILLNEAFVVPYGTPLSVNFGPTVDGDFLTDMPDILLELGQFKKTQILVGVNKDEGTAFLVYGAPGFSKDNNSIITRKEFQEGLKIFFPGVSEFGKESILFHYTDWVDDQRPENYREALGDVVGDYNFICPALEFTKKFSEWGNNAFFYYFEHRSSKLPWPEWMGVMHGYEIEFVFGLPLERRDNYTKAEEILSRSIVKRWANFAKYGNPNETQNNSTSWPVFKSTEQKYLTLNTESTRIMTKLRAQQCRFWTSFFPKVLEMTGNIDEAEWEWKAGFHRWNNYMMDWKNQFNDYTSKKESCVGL

## CCOC(=O)C1=C(C)N(CC2CCN(Cc3ccccc3)CC2)C(=O)NC1c1coc2ccccc2c1=O (stereo not shown) [BIGI-3a, ethyl 1-((1-benzylpiperidin-4-yl)methyl)-6-methyl-2-oxo-4-(4-oxo-4H-chromen-3-yl)-1,2,3,4-tetrahydropyrimidine-5-carboxylate]
[1]
  ORAC: 3.29 ± 0.07 TE
[2]; [5]
  IC50: 14 ± 3 µM
[3]
  IC50: 14.8 ± 0.7 µM

## CCOC(=O)C1=C(C)N(CC2CCN(Cc3ccccc3)CC2)C(=O)NC1c1coc2ccc(Br)cc2c1=O (stereo not shown) [BIGI-3b, ethyl 1-((1-benzylpiperidin-4-yl)methyl)-4-(6-bromo-4-oxo-4H-chromen-3-yl)-6-methyl-2-oxo-1,2,3,4-tetrahydropyrimidine-5-carboxylate]
[1]
  ORAC: 2.06 ± 0.17 TE
[2]; [5]
  IC50: 6 ± 3 µM

## CCOC(=O)C1=C(C)N(CC2CCN(Cc3ccccc3)CC2)C(=O)NC1c1coc2cc(CC)ccc2c1=O (stereo not shown) [BIGI-3c, ethyl 1-((1-benzylpiperidin-4-yl)methyl)-4-(7-ethyl-4-oxo-4H-chromen-3-yl)-6-methyl-2-oxo-1,2,3,4-tetrahydropyrimidine-5-carboxylate]
[4]
  IC50: 6.08 ± 0.38 µM
[1]
  ORAC: 3.51 ± 0.09 TE
[2]; [5]
  IC50: 3 ± 0.9 µM
[3]
  IC50: 36.1 ± 3.1 µM

## CCOC(=O)C1=C(C)N(CCC2CCN(Cc3ccccc3)CC2)C(=O)NC1c1coc2ccccc2c1=O (stereo not shown) [BIGI-3d, ethyl 1-(2-(1-benzylpiperidin-4-yl)ethyl)-6-methyl-2-oxo-4-(4-oxo-4H-chromen-3-yl)-1,2,3,4-tetrahydropyrimidine-5-carboxylate]
[4]
  IC50: 0.23 ± 0.01 µM
[1]
  ORAC: 2.53 ± 0.17 TE
[2]; [5]
  IC50: 9 ± 2 µM
[3]
  IC50: 6.58 ± 0.34 µM

## CCOC(=O)C1=C(C)N(CCC2CCN(Cc3ccccc3)CC2)C(=O)NC1c1coc2cc(CC)ccc2c1=O (stereo not shown) [BIGI-3f, ethyl 1-(2-(1-benzylpiperidin-4-yl)ethyl)-4-(7-ethyl-4-oxo-4H-chromen-3-yl)-6-methyl-2-oxo-1,2,3,4-tetrahydropyrimidine-5-carboxylate]
[4]
  IC50: 0.3 ± 0.01 µM
[1]
  ORAC: 2.20 ± 0.05 TE
[2]; [5]
  IC50: 2.2 ± 0.6 µM
[3]
  IC50: 5.96 ± 0.22 µM

## CCOC(=O)C1=C(C)N(CCC2CCN(Cc3ccccc3)CC2)C(=O)NC1c1coc2cc(C)c(Cl)cc2c1=O (stereo not shown) [BIGI-3g, ethyl 1-(2-(1-benzylpiperidin-4-yl)ethyl)-4-(6-chloro-7-methyl-4-oxo-4H-chromen-3-yl)-6-methyl-2-oxo-1,2,3,4-tetrahydropyrimidine-5-carboxylate]
[4]
  IC50: 0.29 ± 0.01 µM
[1]
  ORAC: 2.56 ± 0.13 TE
[2]; [5]
  IC50: 1.7 ± 0.6 µM
[3]
  IC50: 15.7 ± 0.9 µM

## CCOC(=O)C1=C(C)N(CCCC2CCN(Cc3ccccc3)CC2)C(=O)NC1c1coc2ccccc2c1=O (stereo not shown) [BIGI-3i, ethyl 1-(3-(1-benzylpiperidin-4-yl)propyl)-6-methyl-2-oxo-4-(4-oxo-4H-chromen-3-yl)-1,2,3,4-tetrahydropyrimidine-5-carboxylate]
[4]
  IC50: 0.15 µM
[1]
  ORAC: 3.09 ± 0.07 TE
[2]; [5]
  IC50: 8 ± 1 µM
[3]
  IC50: 4.29 ± 0.09 µM

## CCOC(=O)C1=C(C)N(CCCC2CCN(Cc3ccccc3)CC2)C(=O)NC1c1coc2ccc(Br)cc2c1=O (stereo not shown) [BIGI-3j, ethyl 1-(3-(1-benzylpiperidin-4-yl)propyl)-4-(6-bromo-4-oxo-4H-chromen-3-yl)-6-methyl-2-oxo-1,2,3,4-tetrahydropyrimidine-5-carboxylate]
[4]
  IC50: 0.18 ± 0.01 µM
[1]
  ORAC: 3.24 ± 0.02 TE
[2]; [5]
  IC50: 3.8 ± 0.1 µM
[3]
  IC50: 6.51 ± 0.45 µM

## CCOC(=O)C1=C(C)N(CCCC2CCN(Cc3ccccc3)CC2)C(=O)NC1c1coc2cc(C)c(Cl)cc2c1=O (stereo not shown) [BIGI-3l, ethyl 1-(3-(1-benzylpiperidin-4-yl)propyl)-4-(6-chloro-7-methyl-4-oxo-4H-chromen-3-yl)-6-methyl-2-oxo-1,2,3,4-tetrahydropyrimidine-5-carboxylate]
[4]
  IC50: 0.17 ± 0.01 µM
[1]
  ORAC: 1.68 ± 0.18 TE
[2]; [5]
  IC50: 3.2 ± 0.2 µM
[3]
  IC50: 6.26 ± 0.31 µM

## CCOC(=O)C1=C(C)N(CCCC2CCN(Cc3ccccc3)CC2)C(=O)NC1c1coc2c(Cl)cc(Cl)cc2c1=O (stereo not shown) [BIGI-3m, ethyl 1-(3-(1-benzylpiperidin-4-yl)propyl)-4-(6,8-dichloro-4-oxo-4H-chromen-3-yl)-6-methyl-2-oxo-1,2,3,4-tetrahydropyrimidine-5-carboxylate]
[4]
  IC50: 0.34 ± 0.02 µM
[1]
  ORAC: 3.29± 0.10 TE
[2]; [5]
  IC50: 5 ± 2 µM
[3]
  IC50: 14.4 ± 1.2 µM

## CCOC(=O)C1=C(C)N(CCCC2CCN(Cc3ccccc3)CC2)C(=O)NC1c1coc2ccc(C(C)C)cc2c1=O (stereo not shown) [BIGI-3n, ethyl 1-(3-(1-benzylpiperidin-4-yl)propyl)-4-(6-isopropyl-4-oxo-4H-chromen-3-yl)-6-methyl-2-oxo-1,2,3,4-tetrahydropyrimidine-5-carboxylate]
[4]
  IC50: 0.58 ± 0.02 µM
[1]
  ORAC: 2.45± 0.04 TE
[2]; [5]
  IC50: 1.7 ± 0.4 µM
[3]
  IC50: 4.35 ± 0.23 µM

## COc1cc(/C=C/C(=O)O)ccc1O [Ferulic acid, reference compound]
[1]
  ORAC: 3.7 TE and 3.7 ± 0.2 TE

## COC(=O)C1=C(C)NC(C)=C(C(=O)OC)C1c1ccccc1[N+](=O)[O-] [Nifedipine, reference compound]
[2]; read-out: IC50 (µM) Calcium channels blockade, SH-SY5Y cells, K+ 70 mM, mean ± SEM
  IC50: 6.2 ± 0.2 µM
